Measured values reported in patent US9663478B2, “Benzotriazine oxides as drugs targeting Mycobacterium tuberculosis” (priority 2011, dated 2017).
≈ marks a conversion by molar mass, not a printed value.

Key:
[1] = system: Salmonella typhimurium tester strain TA98; assay: Salmonella/microsome plate incorporation assay (Ames screen), TA98; assay type: cell-based; details: for Mean revertants per plate: Salmonella typhimurium
Source text: (§1) A liability in developing any bioreductively-activated antimicrobial drug is the potential for mutagenicity. Because the basis for activity of these compounds is the generation of intermediate radical species, undesirable mutagenicity poses a risk, as has been documented for many classes of bioreductive drugs, including the BTO tirapazamine (TPZ).^19,20 The most convenient methodology for assessing the potential to induce genetic damage is to use the plate incorporation method with Salmonella typhimurium strains TA98 and TA100, commonly known as the Ames assay. The Salmonella tester strains have mutations in the histidine operon, a mutation that leads to defective lipopolysaccharide (rfa), and a deletion that covers genes involved in the synthesis of biotin (bio) and in the repair of ultraviolet-induced DNA damage (uvrB).^21,22 These mutations make the strains more permeable to many molecules and increase their susceptibility to the mutagenic effects of these molecules. Given that the hypothesized mechanism of the BTO compounds is to selectively form cytotoxic radical species in bacteria over mammalian cells, a microbial mutagenicity assay is not ideal, but was used to benchmark their activities in this assay. […] Individual plate counts and their means and standard deviations, along with the condition of the background lawn, are presented in SI Table 2.
(§2) Experimental compounds were screened for microbial mutagenicity activity using the plate incorporation method with Salmonella typhimurium tester strains TA98 and TA100, in the presence and absence of an Aroclor 1254-induced rat-liver metabolic activation system containing 10% S9 (MA). The presence of the appropriate genetic characteristics was verified for the strains used in this study. Stock solutions were made by dissolving each test sample in dimethyl sulfoxide (DMSO) at 5 mg/ml. These initial stock concentrations were then serially diluted to achieve dose formulations of 100, 50, 10, 5, 1, 0.5, and 0.1 μg/plate (dosing volume 100 μl). Test plates were compared with the control plates for their revertant count and for the condition of the background bacterial lawn. A test article was considered a mutagen when the mean number of revertant colonies on the test plates exceeds the mean solvent control counts by at least a two-fold margin. Dose relatedness was also taken into account when evaluating a mutagenic response. Cytotoxicity was estimated by several parameters: a substantial decrease in the number of revertant colonies on the test plates, clearing or absence of the background bacterial lawn growth, formation of pinpoint nonrevertant colonies, or complete absence of bacterial growth.

[2] = system: Salmonella typhimurium tester strain TA100; assay: Salmonella/microsome plate incorporation assay (Ames screen), TA100; assay type: cell-based
Source text: as §1, §2

Mtb H37Rv [3] = assay: TB MIC - ITR (UIC), Institute for Tuberculosis Research; assay type: cell-based, Mycobacterium tuberculosis; details: for TB MIC - UIC: Tables P1, P2
NRP Mtb H37Rv cells = assay: Low-oxygen recovery assay (LORA) MIC; assay type: cell-based, Mycobacterium tuberculosis; details: for LORA MIC: Tables P1, P2, non-replicating M. tuberculosis
in vitro = details: African green monkey, VERO Tox (CC50)
Mtb H37Rv [4] = assay: TB MIC - SRI, resazurin-based microplate assay; assay type: cell-based, Mycobacterium tuberculosis; details: Mycobacterium tuberculosis, H37RV, Tables P1-P3; read-out: TB MIC - SRI
Vero cells = details: African green monkey, 72 h
[5] = TA100, with metabolic activation (10% S9), 2 μg per plate, positive control
[6] = TA100, with metabolic activation (10% S9), 0.1 μg per plate
[7] = TA100, with metabolic activation (10% S9), 0.5 μg per plate
[8] = TA100, with metabolic activation (10% S9), 1 μg per plate
[9] = TA100, with metabolic activation (10% S9), 5 μg per plate
[10] = TA100, with metabolic activation (10% S9), 10 μg per plate
[11] = TA100, with metabolic activation (10% S9), 50 μg per plate
[12] = TA100, with metabolic activation (10% S9), 100 μg per plate
[13] = TA100, without metabolic activation, 0.1 μg per plate
[14] = TA100, without metabolic activation, 0.5 μg per plate
[15] = TA100, without metabolic activation, 1 μg per plate
[16] = TA100, without metabolic activation, 5 μg per plate
[17] = TA100, without metabolic activation, 10 μg per plate
[18] = TA100, without metabolic activation, 50 μg per plate
[19] = TA100, without metabolic activation, 100 μg per plate

With Nc1ccc2cc3ccccc3cc2c1 [Compound 2AN] the Ratio treated/solvent ([1]; TA98, with metabolic activation (10% S9), 2 μg per plate, positive control) was 15.3, the “Mean revertants per plate” value [2, 5] was 490.0 and the Ratio treated/solvent [2, 5] was 2.9.
For CCNc1n[n+]([O-])c2cc3c(cc2[n+]1[O-])CCC3 [Compound 15fa, 3-(ethylamino)-7,8-dihydro-6H-indeno[5,6-e][1,2,4]triazine 1,4-dioxide], the MIC (Mtb H37Rv [3]; Mycobacterium tuberculosis, H37RV, Tables 1-4, read-out: TB MIC - ITR) was 0.95 µg/mL (≈ 3.86 µM), the MIC (NRP Mtb H37Rv cells; Mycobacterium tuberculosis, H37RV, NRP Mtb, Tables 1-4 and text, read-out: LORA MIC - ITR) was 0.83 µg/mL (≈ 3.37 µM) and the “number of revertant colonies, TA98” value [1] was “dose-related increases in the number of revertant colonies”. For the same compound, the “Mean revertants per plate” value ([1]; 0.1 μg per plate) was 21.0, the “Mean revertants per plate” value ([1]; 0.1 μg/plate) was 35.5 and the “Mean revertants per plate” value ([1]; 0.5 μg per plate) was 19.0. For the same compound, the “Mean revertants per plate” value ([1]; 0.5 μg/plate) was 36.0, the “Mean revertants per plate” value ([1]; 1 μg per plate) was 26.0 and the “Mean revertants per plate” value ([1]; 1 μg/plate) was 30.5. The “Mean revertants per plate” value ([1]; 5 μg per plate) was 47.0, the “Mean revertants per plate” value ([1]; 5 μg/plate) was 37.0 and the “Mean revertants per plate” value ([1]; 10 μg per plate) was 52.0. The “Mean revertants per plate” value ([1]; 10 μg/plate) was 45.0, the “Mean revertants per plate” value ([1]; 50 μg per plate) was 142.5 and the “Mean revertants per plate” value ([1]; 50 μg/plate) was 141.0. The “Mean revertants per plate” value ([1]; 100 μg per plate) was 345.0, the “Mean revertants per plate” value ([1]; 100 μg/plate) was 215.5 and the Ratio treated/solvent ([1]; TA98, with metabolic activation (10% S9), 0.1 μg per plate) was 1.0. The Ratio treated/solvent ([1]; TA98, with metabolic activation (10% S9), 0.5 μg per plate) was 1.0, the Ratio treated/solvent ([1]; TA98, with metabolic activation (10% S9), 1 μg per plate) was 0.9 and the Ratio treated/solvent ([1]; TA98, with metabolic activation (10% S9), 5 μg per plate) was 1.0. It also gave a Ratio treated/solvent ([1]; TA98, with metabolic activation (10% S9), 10 μg per plate) of 1.5, a Ratio treated/solvent ([1]; TA98, with metabolic activation (10% S9), 50 μg per plate) of 4.0 and a Ratio treated/solvent ([1]; TA98, with metabolic activation (10% S9), 100 μg per plate) of 9.7. It also gave a Ratio treated/solvent ([1]; TA98, without metabolic activation, 0.1 μg per plate) of 0.8, a Ratio treated/solvent ([1]; TA98, without metabolic activation, 0.5 μg per plate) of 0.7 and a Ratio treated/solvent ([1]; TA98, without metabolic activation, 1 μg per plate) of 1.0. For the same compound, the Ratio treated/solvent ([1]; TA98, without metabolic activation, 5 μg per plate) was 1.8, the Ratio treated/solvent ([1]; TA98, without metabolic activation, 10 μg per plate) was 1.8 and the Ratio treated/solvent ([1]; TA98, without metabolic activation, 50 μg per plate) was 5.5. For the same compound, the Ratio treated/solvent ([1]; TA98, without metabolic activation, 100 μg per plate) was 8.5, the “Mean revertants per plate” value [2, 6] was 145.5 and the Ratio treated/solvent [2, 6] was 0.9. For the same compound, the “Mean revertants per plate” value [2, 7] was 148.5, the Ratio treated/solvent [2, 7] was 0.9 and the “Mean revertants per plate” value [2, 8] was 185.0. For the same compound, the Ratio treated/solvent [2, 8] was 1.1, the “Mean revertants per plate” value [2, 9] was 207.0 and the Ratio treated/solvent [2, 9] was 1.2. For the same compound, the “Mean revertants per plate” value [2, 10] was 298.5, the Ratio treated/solvent [2, 10] was 1.8 and the “Mean revertants per plate” value [2, 11] was 854.5. For the same compound, the Ratio treated/solvent [2, 11] was 5.1, the “Mean revertants per plate” value [2, 12] was 1450.0 and the Ratio treated/solvent [2, 12] was 8.6. The “Mean revertants per plate” value [2, 13] was 127.0, the Ratio treated/solvent [2, 13] was 0.8 and the “Mean revertants per plate” value [2, 14] was 137.0. The Ratio treated/solvent [2, 14] was 0.8, the “Mean revertants per plate” value [2, 15] was 150.5 and the Ratio treated/solvent [2, 15] was 0.9. The “Mean revertants per plate” value [2, 16] was 259.0, the Ratio treated/solvent [2, 16] was 1.6 and the “Mean revertants per plate” value [2, 17] was 299.5. The Ratio treated/solvent [2, 17] was 1.8, the “Mean revertants per plate” value [2, 18] was 913.5 and the Ratio treated/solvent [2, 18] was 5.6. The “Mean revertants per plate” value [2, 19] was 1268.0, the Ratio treated/solvent [2, 19] was 7.8 and the “number of revertant colonies, TA100” value ([2]; presence and absence of metabolic activation) was “dose-related increases in the number of revertant colonies”.
With [N-]=[N+]=[N-].[Na+] [SA] the “Mean revertants per plate” value [2, 16] was 1620.0 and the Ratio treated/solvent [2, 16] was 10.0.
[O-][n+]1nc(NC2CC2)[n+]([O-])c2ccccc21 [SRI-012255] showed a TB MIC - UIC (Mtb H37Rv [3]) of 1.82 µg/mL, an LORA MIC (NRP Mtb H37Rv cells) of 1.76 µg/mL and a CC50 at 72 h (in vitro) of 20.7 µg/mL (≈ 94.9 µM).
[O-][n+]1nc(NC2CCCCCC2)[n+]([O-])c2ccccc21 [SRI-012256] gave a TB MIC - UIC (Mtb H37Rv [3]) of 1.64 µg/mL, an LORA MIC (NRP Mtb H37Rv cells) of 0.5 µg/mL and a CC50 at 72 h (in vitro) of 7.9 µg/mL (≈ 28.8 µM).
For CCCC(C)Nc1n[n+]([O-])c2ccccc2[n+]1[O-] (stereo not drawn) [SRI-012258], the TB MIC - UIC (Mtb H37Rv [3]) was 1.95 µg/mL, the LORA MIC (NRP Mtb H37Rv cells) was 0.99 µg/mL and the CC50 at 72 h (in vitro) was 26.3 µg/mL (≈ 106 µM).
For [O-][n+]1nc(NC2CCCC2)[n+]([O-])c2ccccc21 [SRI-012265], the TB MIC - UIC (Mtb H37Rv [3]) was 3.58 µg/mL, the LORA MIC (NRP Mtb H37Rv cells) was 0.68 µg/mL and the CC50 at 72 h (in vitro) was 10.4 µg/mL (≈ 42.2 µM).
In the case of [O-][n+]1nc(NC2CC2)[n+]([O-])c2ccc(F)cc21 [SRI-012274], the MIC (Mtb H37Rv [4]) is reported as 0.312 µg/mL (≈ 1.32 µM), the TB MIC - UIC (Mtb H37Rv [3]) is reported as 0.93 µg/mL and the LORA MIC (NRP Mtb H37Rv cells) is reported as 2.8 µg/mL. For the same compound, the “VERO Tox-SRI” value (Vero cells) was 3.5.
[O-][n+]1nc(NC2CCCCC2)[n+]([O-])c2ccc(F)cc21 [SRI-012275] gave an MIC (Mtb H37Rv [4]) of 0.625 µg/mL (≈ 2.25 µM), a TB MIC - UIC (Mtb H37Rv [3]) of 0.68 µg/mL and an LORA MIC (NRP Mtb H37Rv cells) of 0.47 µg/mL. For the same compound, the “VERO Tox-SRI” value (Vero cells) was under 2.5.
Work on [O-][n+]1nc(NC2CCC2)[n+]([O-])c2ccc(F)cc21 [SRI-012276] yielded an MIC (Mtb H37Rv [4]) of 0.312 µg/mL (≈ 1.25 µM), a TB MIC - UIC (Mtb H37Rv [3]) of 0.4 µg/mL and an LORA MIC (NRP Mtb H37Rv cells) of 0.88 µg/mL. For the same compound, the “VERO Tox-SRI” value (Vero cells) was 2.5.
In the case of [O-][n+]1nc(NC2CCCC2)[n+]([O-])c2ccc(F)cc21 [SRI-012277], the MIC (Mtb H37Rv [4]) is reported as 0.312 µg/mL (≈ 1.18 µM), the TB MIC - UIC (Mtb H37Rv [3]) is reported as 0.33 µg/mL and the LORA MIC (NRP Mtb H37Rv cells) is reported as 0.34 µg/mL. For the same compound, the “VERO Tox-SRI” value (Vero cells) was 2.3.
